Source: ChEMBL document CHEMBL3352739, “Comparative in vivo evaluation of polyalkoxy substituted 4H-chromenes and oxa-podophyllotoxins as microtubule destabilizing agents in the phenotypic sea urchin embryo assay” (2014)

Tests used:
Paracentrotus lividus [1] = experiment: Antimitotic microtubule destabilizing activity in Paracentrotus lividus L embryos assessed as induction of cleavage alteration
Paracentrotus lividus [2] = experiment: Antimitotic microtubule destabilizing activity in Paracentrotus lividus L embryos assessed as induction of cleavage arrest
Paracentrotus lividus [3] = experiment: Antimitotic microtubule destabilizing activity in Paracentrotus lividus L embryos assessed as induction of embryo spinning
[4] = Cytotoxicity against human NCI60 cells; format: functional
[5] = Cytotoxicity against human NCI60 cells assessed as mean cell growth at 10 uM; format: functional

Structure (SMILES) | EC (Paracentrotus lividus [1]) | EC (Paracentrotus lividus [2]) | EC (Paracentrotus lividus [3]) | GI50 [4] | Activity [5]
COc1ccc(C2C(C#N)=C(N)Oc3cc(OC)ccc32)c(OC)c1 (centres undefined) | 0.1 µM | 1 µM | 4 µM | – | –
COc1cccc([C@H]2C(C#N)=C(N)Oc3cc(OC)ccc32)c1 | 0.001 µM | 0.01 µM | 0.05 µM | – | –
COc1cc(OC)c(C2C(C#N)=C(N)Oc3cc(O)ccc32)c(OC)c1 (centres undefined) | – | > 4 µM | > 4 µM | – | –
COc1ccc2c(c1)OC(N)=C(C#N)C2c1cc(OC)c2c(c1)OCO2 (centres undefined) | 0.005 µM | 0.02 µM | 0.05 µM | – | –
COc1ccc2c(c1)OC(N)=C(C#N)C2c1cccc(OC)c1OC (centres undefined) | 0.2 µM | 2 µM | 4 µM | – | –
COc1cccc(C2C(C#N)=C(N)Oc3cc(O)ccc32)c1OC (centres undefined) | > 4 µM | > 4 µM | > 4 µM | – | –
COc1cc(C2C(C#N)=C(N)Oc3cc4c(cc32)OCO4)cc2c1OCO2 (centres undefined) | 0.005 µM | 0.05 µM | 0.2 µM | 389 nM | –
N#CC1=C(N)Oc2cc(O)ccc2C1c1cc2c(c([N+](=O)[O-])c1)OCCO2 (centres undefined) | 4 µM | > 4 µM | > 4 µM | 99300 nM | –
COc1ccc(OC)c(C2C(C#N)=C(N)Oc3cc(O)ccc32)c1 (centres undefined) | 1 µM | > 4 µM | > 4 µM | – | 94.5%
COc1ccc2c(c1)OC(N)=C(C#N)C2c1ccc(OC)c(OC)c1 (centres undefined) | 0.05 µM | 0.2 µM | 1 µM | – | –
COc1cc([C@@H]2c3cc4c(cc3[C@H](O)[C@H]3COC(=O)[C@H]23)OCO4)cc(OC)c1OC [PODOFILOX] | 0.02 µM | 0.05 µM | 0.5 µM | 21 nM | –
COc1cc(C2C(C#N)=C(N)Oc3cc(O)ccc32)cc2c1OCCO2 (centres undefined) | 1 µM | 4 µM | > 5 µM | – | –
COc1ccc(C2C(C#N)=C(N)Oc3cc(O)ccc32)c(OC)c1OC (centres undefined) | > 4 µM | > 4 µM | > 4 µM | – | –
N#CC1=C(N)Oc2cc(O)ccc2C1c1ccccc1I (centres undefined) | 4 µM | > 4 µM | > 4 µM | – | –
COc1cc(C2C(C#N)=C(N)Oc3cc(O)ccc32)c(OC)c(OC)c1OC (centres undefined) | > 4 µM | > 4 µM | > 4 µM | – | –
N#CC1=C(N)Oc2cc(O)ccc2C1c1ccccc1 (centres undefined) | 0.5 µM | 2 µM | > 5 µM | – | –
COc1ccc2c(c1)OC(N)=C(C#N)C2c1cc(N)c2c(c1)OCCO2 (centres undefined) | 0.1 µM | 0.5 µM | 5 µM | – | –
